This is an account of results in patent publication US9187470B2, “Anti-mucus drugs and uses therefor” (Washington University, priority 2012, dated 2015).

For orientation: IC50 means the concentration needed to halve the response being measured.

Like-named read-outs stand apart in the source and are kept apart here.

For series [1], the target named is T1, MAPK13 (Homo sapiens (Human), UniProt O15264). Kind of series: MAPK inhibitor assay: immobilized metal affinity polarization (IMAP) assay with activated MAPK13. Conditions: for MAPK13 inhibitory activity (in words): IMAP assay, FIG. 6f. The format is biochemical. The method, then: MAPK inhibitor assay. The MAPK13 blocking activity of test compounds was determined using an immobilized metal affinity polarization (IMAP) assay containing activated MAPK13, FITC-labeled substrate, and test compound. Full-length 6-His-tagged MAPK13 and constitutively active GST-MKK6 were prepared as described below. Activated MAPK13 was generated in 50 mM Hepes, 10 mM MgCl2 and 1 mM DTT, containing 1 μM MAPK13, 2 μM MKK6 and 50 μM ATP for 1 h at 25° C. MKK6 was removed by incubation with glutathione SEPHAROSE 4B beads (GE Healthcare Biosciences). […] IMAP assays were performed in 96-well non-treated half-area black plates or 384-well black plates (Corning Inc., Corning, N.Y.) in a final reaction volume of 20 μl using the linear phase of the rate kinetics. […] The reaction proceeded for 20 min at 25° C. in 10 mM Tris-HCl, 10 mM MgCl2, 0.1% BSA, 0.05% NaN3, 1 mM DT, pH 7.2 after which 60 μl of tri-valent metal nanoparticles containing IMAP binding reagent (Molecular Devices, Sunnyvale, Calif.) was added for 80 min at 25° C. The IMAP binding reagent was optimized at 1:600 (vol/vol) based on the number of acidic residues in the peptide substrate. Fluorescence polarization was measured with a Biotek Synergy 4 multimode plate reader (Biotek, Winooski, Vt.) with excitation at 485 nm and emission at 528 nm. The IC50 values for each compound were determined from the compound concentration versus fluorescence polarization (mP) plot using nonlinear curve fitting with GraphPad Prism software (Graphpad Software, La Jolla, Calif.).
MAPK purification for biochemical assays and crystallization. Full-length human MAPK13 (1-365) and MAPK13 crystallization construct (1-352) were cloned into pET28a as N-terminal 6-His-tagged constructs. […] A pET28a construct of λ-phosphatase was a gift from Dima Klenchin (University of Wisconsin, Madison, Wis.). All constructs were confirmed by sequencing and transformed into Rosetta2 (DE3) E. coli (EMD Millipore, Billerica, Mass.) and expressed as soluble proteins that were purified using the specific affinity tags followed by gel filtration chromatography. […] The final purified MAPK13 for crystallization was stored in buffer containing 20 mM Hepes pH 7.5, 150 mM NaCl, 10% glycerol, and 1 mM DTT.
In concert with this structural analysis, analogs for MAPK13 inhibitory activity were tested using an immobilized metal affinity polarization (IMAP) assay that detected fluorescence polarization as a function of remaining MAPK13 activity.

The target of series [2] is T1, MAPK13. Nature of the series: MAPK13/small molecule binding assay (bio-layer interferometry, Octet). To be noted: for t1/2: complex half-life determined using BLI; for slow-off binding kinetics: FIG. 6d,e. An excerpt:
MAPK purification for biochemical assays and crystallization. Full-length human MAPK13 (1-365) and MAPK13 crystallization construct (1-352) were cloned into pET28a as N-terminal 6-His-tagged constructs. A constitutively active mutant MKK6-GST fusion construct (GST-MKK6 Glu) was a gift from Peiqing Sun (Scripps, La Jolla, Calif.). A pET28a construct of λ-phosphatase was a gift from Dima Klenchin (University of Wisconsin, Madison, Wis.). All constructs were confirmed by sequencing and transformed into Rosetta2 (DE3) E. coli (EMD Millipore, Billerica, Mass.) and expressed as soluble proteins that were purified using the specific affinity tags followed by gel filtration chromatography. […] All buffers used during purification (lysis, column, and storage) of MAPK13 required addition of 10% glycerol and 1-5 mM reducing agent (either β-mercaptoethanol or DTT) to prevent precipitation of the recombinant protein. The final purified MAPK13 for crystallization was stored in buffer containing 20 mM Hepes pH 7.5, 150 mM NaCl, 10% glycerol, and 1 mM DTT.
MAPK13/small molecule binding assay. Kinetics of MAPK13 binding to small molecules was assessed using bio-layer interferometry with an Octet (ForteBio, Menlo Park, Calif.). Super-streptavidin-coated biosensors from ForteBio were used to capture biotinylated MAPK13 onto the surface of the sensor. After reaching baseline, sensors were moved to association step containing 2500, 1250, 625, 312.5, or 156.3 nM inhibitor for 300 s and then dissociated for 300 s. Curves were corrected by a double-referencing technique using both biotin-coated pins dipped into the experimental wells and a buffer-only reference. The running buffer consisted of 10 mM Hepes pH 7.5, 150 mM NaCl, 0.05% Tween, and 5% DMSO. Half-lives were calculated from dissociation constants determined from global kinetic analysis.
A general note: In BLI a coated tip is dipped into the sample, and binding shifts an interference pattern.

The test system of series [3] is MUC5AC. Kind of series: IL-13-induced MUC5AC production in primary-culture human tracheal epithelial cells (qPCR, cell-based ELISA). Conditions: for IL-13-induced MUC5AC production: FIG. 6h. In general terms: Real-time PCR tracks product formation cycle by cycle.
For series [4], the system named is MUC5AC. Nature of the series: Doxycycline-induced MUC5AC mRNA and protein in NCI-H292-rtTA-hCLCA1 cells. Conditions: doxycycline 7.5 μg/ml for 18 h. Format: cell-based, human.
The subject of the next series is CLCA1. Nature of the series: CLCA1 levels in IL-13-treated hTECs (qPCR). The format is cell-based, human. Conditions: IL-13 50 ng/ml, up to 21 d air-liquid interface.
Setting [5] is: lower part of Table 4, IMAP-based biochemical assay, read-out: MAPK13 IC50.
The mark [6] stands for this setting: upper part of Table 4, 16-point inhibitor concentration-response curves, unit inferred, read-out: IC50 (IC50 values for MAPK13 inhibition).
The mark [7] stands for this setting: primary-culture human airway epithelial cells.

T1 sequence (O15264 whole entry): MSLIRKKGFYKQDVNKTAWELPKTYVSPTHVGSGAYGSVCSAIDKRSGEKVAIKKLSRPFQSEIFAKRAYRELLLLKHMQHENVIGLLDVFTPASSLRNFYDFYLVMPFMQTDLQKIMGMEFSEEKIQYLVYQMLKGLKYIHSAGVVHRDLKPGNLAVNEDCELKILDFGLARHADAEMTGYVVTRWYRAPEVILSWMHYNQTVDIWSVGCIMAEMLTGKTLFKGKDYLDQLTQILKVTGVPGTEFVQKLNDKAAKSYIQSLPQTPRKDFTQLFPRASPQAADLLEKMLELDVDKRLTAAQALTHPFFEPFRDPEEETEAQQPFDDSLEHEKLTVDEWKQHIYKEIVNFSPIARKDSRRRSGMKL

With `Cn1c(NC[C@@H](N)Cc2ccccc2)nc(-c2ccncc2)c(-c2ccc3ccccc3c2)c1=O` [AMG-548, reference compound], the “MAPK13 inhibitory activity (in words)” value on MAPK13 [1] is “weak inhibitory activity”.
Regarding `Cc1ccc(-n2nc(C(C)(C)C)cc2NC(=O)Nc2ncc(CCN3CCOCC3)s2)cc1` [Analog 89, 1-[5-tert-butyl-2-(p-tolyl)pyrazol-3-yl]-3-[5-(2-morpholinoethyl)thiazol-2-yl]urea], the IC50 on MAPK13 [1] (setting [5]) was 0.0275 µM. This compound also returned a t1/2 on MAPK13 [2] of 20 min.
`Cc1ccc(-n2nc(C(C)(C)C)cc2NC(=O)Nc2ccc3c(c2)CN(C(=O)C2CCOCC2)C3)cc1` [Analog 115, 1-[5-tert-butyl-2-(p-tolyl)pyrazol-3-yl]-3-[2-(tetrahydropyran-4-carbonyl)isoindolin-5-yl]urea]: the IC50 on MAPK13 [1] (setting [5]) was 8.65 µM. For the same compound, the “Relative Dissociation kinetics” value at MAPK13 [2] (BLI) is on record as “slow”. At MAPK13 [2], this compound registered a t1/2 of 3.4 min.
In the case of `Cc1cn(-c2cccc(C(=O)Nc3ccc(Oc4ccncc4)cc3)c2)cn1` [Analog 117, 3-(4-methylimidazol-1-yl)-N-[4-(4-pyridyloxy)phenyl]benzamide], the “MAPK13 Inhibition Biochemical Potency” value on MAPK13 [1] (class symbols +++, ++, +, ~, legend not given) is on record as “~”. Moreover, the results for the half-maximal inhibitory concentration (IC50) at MAPK13 [1] (setting [5]) and on MAPK13 [1] (setting [6]) were 10.2 µM and 15.8 µM, respectively. The slow-off binding kinetics result on MAPK13 [2] is “did not”. The t1/2 at MAPK13 [2] came out at 0.0467 min.
`O=C(Nc1ccc(Oc2ccncc2)cc1)c1ccnc(N2CCOCC2)c1` [Analog 124, 2-morpholino-N-[4-(4-pyridyloxy)phenyl]pyridine-4-carboxamide] registered a t1/2 on MAPK13 [2] of 0.02 min.
With `Cc1ccc(-n2nc(C(C)(C)C)cc2NC(=O)Nc2ccc(OCCN3CCOCC3)c3ccccc23)cc1` [BIRB-796, BIRB-796 (Doramapimod)], the “IL-13-induced MUC5AC gene expression” value in the series on MUC5AC [3] (hTECs, IL-13 50 ng/ml, up to 21 d air-liquid interface) is reported as “markedly suppressed”. The “doxycyline-induced MUC5AC mRNA and protein production” value with MUC5AC [4] is “inhibited”. Also, in the series on CLCA1, the “corresponding CLCA1 levels / CLCA1 gene expression” value is “without affecting”.
For the compound `Cn1nc(C(C)(C)C)cc1NC(=O)Nc1ccc(Oc2ccncc2)cc1` [Compound 61], the “IL-13-induced MUC5AC production” value in the series with MUC5AC [3] (setting [7]) was “markedly suppressed”. The “MAPK13 inhibitory activity (in words)” value at MAPK13 [1] was “most potent MAPK13 inhibition”. Moreover, the concentration for half-maximal inhibition (IC50) on MAPK13 [1] (setting [5]) was found to be 0.0827 µM. The IC50 at MAPK13 [1] (setting [6]) was found to be 0.62 µM. Besides, the “increase in complex half-life” value at MAPK13 [2] (DFG-out compound 61 compared with DFG-in compound 117 (FIG. 6E)) is on record as 40 fold. On MAPK13 [2], the slow-off binding kinetics result is on record as “exhibited slow-off binding kinetics” and the t1/2 is 1.85 min.
For the compound `Cc1ccc(-n2nc(C(C)(C)C)cc2NC(=O)Nc2ccc(Oc3ccncc3)cc2)cc1` [Compound 62], the IC50 with MUC5AC [3] (IL-13-induced, primary-culture human airway epithelial cells, read-out: IC50 for blockade of mucus production) is < 0.01 µM; on MAPK13 [1] (setting [6]) it was 0.281 µM. In addition, the “IL-13-induced MUC5AC production” value in the series with MUC5AC [3] (setting [7]) is listed as “markedly suppressed”. Moreover, the “MAPK13 inhibitory activity (in words)” value on MAPK13 [1] was “most potent MAPK13 inhibition”.
